Laboratory results as given in paper PMC5945669, “Reversible glycosidic switch for secure delivery of molecular nanocargos” (Nature Communications, 2018).

What was measured:
[1] = Octanol-to-water partitioning; settings: for partitioning behavior in octanol-water two-phase system: 1-octanol / citric acid buffer pH 5 (Fig. 2f), in words; for Log P (partition coefficient): 24 h, pH 5
Procedure: Samples from the supernatant were analyzed by HPLC to determine water solubility. The partitioning of compounds between octanol and water was determined by adding 2.5 nmol of each substance to an equal volume (200 µL) mixture of octanol and 0.25 M citric acid, pH 5 and shaking for 24 h to permit equilibration between the two phases. The tubes were then centrifuged at 20,000 × g for 30 min at 20 °C and 20 μL samples from each phase were analyzed by HPLC. The partition coefficient is defined by the following equation, where “C” is the concentration of compound in each phase. A partition coefficient equal to 0 means that the compound equally distributes between each phase.

[2] = parental hydrophobic drugs; cited from earlier work
[3] = test system: MDA-MB-468 human breast tumors; test: In vivo anticancer activity, subcutaneous human breast cancer xenograft; set-up: species or system NOD/SCID mice; settings: four weekly injections
Procedure: MDA-MB468 human breast cancer cells (10^7 cells in 100 µL PBS) were injected subcutaneously in twelve to sixteen-week old female NOD/SCID immunodeficient mice. When tumors reached sizes ranging from 75 to 100 mm^3, groups of seven mice were treated at weekly intervals for four times with intravenous injections of 9AC at 5.5 µmol kg^−1 (2 mg kg^−1), 9AC-G^W at 14.5 µmol kg^−1 (10 mg kg^−1), liposomal 9AC-G^W at 14.5 µmol kg^−1 (10 mg kg^−1), or doxorubicin liposomes (Doxisome, 1.8 µmol kg^−1 equivalent to 1 mg kg^−1 and 5.5 µmol kg^−1 equivalent to 3 mg kg^−1). Tumor volumes, body weights, and survival were monitored for more than 2 months after treatments started. […] The tumor volume was calculated according to the following formula:2 TumorVolume=Length×Depth×Height/2

[4] = Regeneration of parental drug 9AC within tumors (tumor vs blood); format: in vivo, NOD/SCID mice; settings: female, NOD/SCID, mouse, intravenous, printed in picture of Fig. 9b, read-out: 9AC per gram of tissue, Tumor vs Blood
Procedure: Twelve to 16 week old female NOD/SCID immunodeficient mice were inoculated with 10^7 MDA-MB468 human breast cancer cells. When tumors reached ~100 mm^3, the mice were intravenously injected with 14.5 µmol kg^−1 (10 mg kg^−1) of liposomal 9AC-G^W (based on the drug concentration). Blood was collected in Na-heparinized hematocrit tubes from the tail vein and mice were then killed to harvest the tumor tissue. Blood samples (100 µL) were centrifuged at 2500 × g for 3 min and the plasma was collected for analysis. Tumor tissue was homogenized in 3 mL RIPA buffer (25 mM Tris-HCl pH 7.5, 150 mM NaCl, 0.1% SDS, 0.5% Na-deoxycholate, 1% Triton X-100) on a IKA Ultra-Turrax® TP 18/10 homogenizer. The amount of 9AC was determined in blood and tumor samples by HPLC and normalized to amounts per gram of tissue, according to the relationship 1 mL of whole blood = 1.06 g of weight.

[5] = Pharmacokinetics in plasma after i.v. injection; set-up: species or system NOD/SCID female mice; settings: female, NOD/SCID, mouse, in vivo, iv, 35 umol/kg
Procedure: 9AC-G^W was dissolved at 10.9 µmol mL^−1 (7.5 mg mL^−1) in 25 mM phosphate buffer pH 6.5 just before use. 9AC-G^W liposomes were concentrated by successive centrifugations at 5000, 10,000, and 20,000 × g for 30 min at 4 °C. After each centrifugation, the pellet was collected and resuspended in a smaller volume of buffer. The concentration of liposomal 9AC-G^W achieved through this method before injection was 5.1 µmol mL^−1 (3.5 mg mL^−1) based on 9AC-G^W. Each preparation (free 9AC-G^W and liposomal 9AC-G^W) was injected intravenously in the tail vein of 12–16 week old NOD/SCID female mice at 35 µmol kg^−1 (25 mg kg^−1) using three mice per group. Blood samples were collected at 5 min, 30 min, 60 min, 2 h, and 3 h for free 9AC-G^W, in addition to 6, 12, 26, 48, 148 h for 9AC-G^W liposomes with Na-heparinized hematocrit tubes from the tail vein. The plasma was separated from the red blood cells by centrifugation at 2500 × g for 3 min. […] The final results are expressed as 9AC-G^W plasma concentration in µmol L^−1 (µM). Biological half-lives were determined by an exponential two phase decay curve fit on GraphPad prism (GraphPad software, Inc.).

[6] = Stability and conversion of the lipid-soluble switch in liposomal external and internal buffers; format: physicochemical; settings: 75 °C
Procedure: Error bars, SD, n = 3. c Kinetics of the conversion of 9AC-G^W to lipid-soluble 9AC-G^L, d BQC-G^W to BQC-G^L and e 4MU-G^W to 4MU-G^L in acidic methanol at 62 °C. The HPLC chromatograms show samples at 0, 15, 30, and 60 min. RFU relative fluorescent units. f Partition coefficients (Log scale) between 50 mM citric acid buffer pH 5 and 1-octanol of the parental compounds compared to their respective -G^W and -G^L forms. Error bars: SD, n = 5. g Stability of 9AC-G^L in liposomal external buffer (50 mM citric acid, 250 mM sodium sulfate, pH 5) at 75 °C. Error bars: SD, n = 3. h Conversion of 9AC-G^L to 9AC-G^W in liposomal internal buffer (50 mM HEPES, 250 mM calcium acetate, pH 8.5) at 75 °C. Error bars: SD, n = 3.
Water-soluble 9AC-G^W was obtained by incubating 50 µg 9AC-G^L in 500 µL of liposomal internal buffer at pH 8.5. After 1 h at 65 °C the reaction was analyzed by HPLC to assess the reformation of 9AC-G^W. A 20 µL sample of 9AC-G^W was then transferred to 1 mL of reaction buffer (100 mM sodium acetate, 100 ng mL^−1 bovine serum albumin, pH 4.5) containing 1 µg of purified recombinant human beta-glucuronidase[56] for 1 h at 37 °C to cleave the cue-responsive trigger and generate 9AC. Drug regeneration was also examined in a biological system where 10^5 cells (MDA-MB468, HCC36, and HCC36 anti-PEG) were seeded per well in a 96 well-plate in triplicate and incubated overnight. […]

[7] = Water solubility (saturation, HPLC); format: physicochemical; settings: 24 h
[8] = in animals; no reference given; cited from earlier work
[9] = PBS pH 7.4, after 2 hr; no reference given; cited from earlier work
[10] = set-up: method as in earlier work; settings: rats 50, 250, 500 mg/kg i.p. daily; dogs 50 mg/kg i.v.; ref 6 of peer review file; cited from earlier work

Structure (SMILES): Cc1cc(=O)oc2cc(O[C@@H]3O[C@H](C(=O)O)[C@@H](O)[C@H](O)[C@H]3O)ccc12 [4MU-G^W, 4-methylumbelliferyl-β-D-glucuronide, reference compound]
- partitioning behavior in octanol-water two-phase system [1]: partitioned in the aqueous phase
- partitioning behavior in octanol-water two-phase system ([1]; listed as 4MU-G^L): slightly lipophilic behavior

Structure (SMILES): CC[C@@]1(O)C(=O)OCc2c1cc1n(c2=O)Cc2cc3c(N)cccc3nc2-1 [9AC, 9-aminocamptothecin]
- water solubility [2]: < 50 µg/mL
- effect on tumor growth compared with TBS ([3]; 5.5 µmol kg^−1 i.v.): minimal effect on tumor growth
- Kp at 24 h ([4]; 24 h post-injection): > 30
- Kp at 72 h ([4]; 72 h post-injection): > 12

Structure (SMILES): CCC1(O)C(=O)OCc2c1cc1n(c2=O)Cc2cc3c(NC(=O)OCc4ccc(OC5OC(C(=O)O)C(O)C(O)C5O)cc4)cccc3nc2-1 [9AC-G^W, 9-aminocamptothecin-β-D-glucuronide]
- half-life ([5]; initial half-life): 9.3 min
- half-life ([5]; terminal half-life): 38.6 min
- effect on tumor growth compared with TBS ([3]; 14.5 µmol kg^−1 i.v.): minimal effect on tumor growth
- stability in liposomal external buffer ([6]; pH 5 (50 mM citric acid, 250 mM sodium sulfate)): stable
- conversion in liposomal internal buffer ([6]; pH 8.5 (50 mM HEPES, 250 mM calcium acetate)): rapidly converted to the highly water-soluble 9AC-G^W
- partitioning behavior in octanol-water two-phase system [1]: partitioned in the aqueous phase
- partitioning behavior in octanol-water two-phase system ([1]; listed as 9AC-G^L): slightly lipophilic behavior
- Log P (partition coefficient) [1]: ~ 1.1
- water solubility, fold greater than the parental hydrophobic drug [7]: 680 fold

Structure (SMILES): CCC1(O)C(=O)OCc2c1cc1n(c2=O)Cc2c-1nc1ccc(O)c3c1c2CCC3 (centres unmarked) [BQC, 5,6-dihydro-4H-benzo[de]quinoline-camptothecin, reference compound]
- Water solubility, fold difference between Parental and -G^W Switch [7]: > 3700 ×

Structure (SMILES): CCC1(O)C(=O)OCc2c1cc1n(c2=O)Cc2c-1nc1ccc(OCc3ccc(OC4OC(C(=O)O)C(O)C(O)C4O)c([N+](=O)[O-])c3)c3c1c2CCC3 [BQC-G^W, 5,6-dihydro-4H-benzo[de]quinoline-camptothecin-β-D-glucuronide]
- partitioning behavior in octanol-water two-phase system [1]: partitioned in the aqueous phase
- partitioning behavior in octanol-water two-phase system ([1]; listed as BQC-G^L): slightly lipophilic behavior
- Log P (partition coefficient) [1]: ~ 1.3
- water solubility, fold greater than the parental hydrophobic drug [7]: 3700 fold

Structure (SMILES): OCc1ccccc1 [Benzyl alcohol, benzyl alcohol]
- LD50 dose [8]: greater than 1 g per kg

Structure (SMILES): CC[C@@]1(O)C(=O)OCc2c1cc1n(c2=O)Cc2cc3ccccc3nc2-1 [CPT]
- activity remaining [9]: 10%

Structure (SMILES): O=C[C@H](O)[C@@H](O)[C@H](O)[C@H](O)C(=O)O [D-glucuronic acid]
- functional or morphological changes after one-month treatment [10]: induced neither f unctional nor
